The target in test [1] is T1, hGSTM1-1 (Homo sapiens, UniProt P09488).
T1 sequence (P09488 1-218): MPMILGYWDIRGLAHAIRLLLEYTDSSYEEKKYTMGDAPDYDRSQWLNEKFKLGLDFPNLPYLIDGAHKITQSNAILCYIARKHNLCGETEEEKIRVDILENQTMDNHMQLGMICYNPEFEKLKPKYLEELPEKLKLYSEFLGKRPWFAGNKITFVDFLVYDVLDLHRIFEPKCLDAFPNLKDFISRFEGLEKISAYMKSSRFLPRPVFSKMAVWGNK
Kind of test: biochemical. An excerpt:
Furthermore, the catalytic activity of hGSTM1-1 cannot be regained by extensive dialysis or gel filtration on Sephadex G-25. […] The Kapp calculated by inactivation experiments is in good agreement to that determined by kinetic inhibition analysis.
The rate of inactivation was followed by periodically removing samples for assays of enzymatic activity.

Test [2] deals with T1, hGSTM1-1. Kind of test: Kinetic inhibition study with pirimicarb (Lineweaver-Burk and secondary plots). Type of test: biochemical. To be noted: for Ki: Ki (binding to free enzyme). The arrangement: made in house; host or cells: E. coli. On the procedure:
Initial velocities for the catalyzed reaction of the isoenzyme hGSTM1-1 with GSH as a variable substrate were performed at 37 °C in a total volume of 1 mL mixture containing 0.75 μg of the isoenzyme GSTM1-1, 0.1 M potassium phosphate buffer (pH 6.5), 1 mM CDNB and different concentrations of GSH in the range of 0.0175–3.75 mM in the presence of different concentrations of the insecticide pirimicarb (0–40 μM). With CDNB as a variable substrate, the reaction mixture total volume (1 mL) contained 0.75 μg of the isoenzyme GSTM1-1, 0.1 M potassium phosphate buffer (pH 6.5), 1 mM GSH and CDNB in the concentration range of 0.015–1.5 mM in the presence of different concentrations of pirimicarb (0–30 μM). The kinetic parameters were determined using the computer program GraphPad Prism 7.

Test [3] concerns the target T1, hGSTM1-1. Kind of test: biochemical. To be noted: 25 μM pesticide; CDNB (1 mM)-GSH (2.5 mM) assay; mean of three assays, variation less than 5%; read-out: Inhibition (%). Set-up: made in house; host or cells: E. coli. The protocol: (§1) Reduced GST assays were performed by monitoring the formation of the conjugate of CDNB (1 mM) with GSH (2.5 mM) at 340 nm (ε = 9.6 mM^−1cm^−1) for 120 s according to a published method. One unit of enzyme activity is defined as the amount of enzyme that produces 1 μmol of product per minute under the assay conditions.
Pesticide screening and inhibition potency evaluation towards hGSTM1-1 were carried out in the assay system described above in the presence of 25 μM pesticide diluted in acetone. During the assay, no measurable pesticide/GSH reaction was detected. The percentage of enzyme inhibition (I) was calculated using the following equation:%I = [(Ro − Ri)/Ro] × 100(3) where Ro is the unit of enzyme activity increase for the uninhibited reaction and Ri is the rate of increase for the inhibited reaction. Both Ri and Ro correspond to the same substrate concentration.

In test [4] the target is T1, hGSTM1-1. Kind of test: IC50 determination, concentration-response in CDNB-GSH assay. The test is classed as biochemical. The arrangement: made in house; host or cells: E. coli. On the procedure: as §1
[…]. The IC50 values were determined using the program GraphPad Prism (GraphPad Software Inc., Version 7, San Diego, CA, USA).

[5] abbreviates: GSH as variable substrate, 37 °C, pH 6.5.

Here are results for one molecule from PMC8998827, “Ligandability Assessment of Human Glutathione Transferase M1-1 Using Pesticides as Chemical Probes” (International Journal of Molecular Sciences, 2022).

What is called Kd is the concentration at which binding is half-saturated. Usually Ki stands for the equilibrium dissociation constant of an inhibitor or competing ligand from its target. By inhibition is commonly meant the share of the control response that was lost under treatment. As a reminder, the IC50 is the concentration needed to halve the response being measured.

`Cc1nc(N(C)C)nc(OC(=O)N(C)C)c1C` [Pirimicarb, pirimicarb] returned a Kd in test [1] of 15.5 ± 1.2 µM. Besides, in test [1] (pH 7.4), the “Effect on inactivation of hGSTM1-1 by GS-ESF” value is on record as “diminish the observed rate of enzyme inactivation”. For the same molecule, the “Ki' (binding to enzyme-CDNB complex)” value in test [2] (CDNB as variable substrate, 37 °C, pH 6.5, 1/Vmax app versus [Pirimicarb]) was 44.7 ± 1.14 µM. The Inhibition pattern result in test [2] (GSH as variable substrate) and in test [2] (towards CDNB) was “mixed-type inhibition” each time. Further, in test [2] (setting [5]), the “Ki' (binding to enzyme-GSH complex)” value was determined as 35.97 ± 2.57 µM. Also, the Ki in test [2] (CDNB as variable substrate, 37 °C, pH 6.5, Slope versus [Pirimicarb]) is 37.7 ± 1.03 µM; in test [2] (setting [5]), 24.5 ± 2.86 µM. Further, the inhibition at 25 µM in test [3] turned out to be 52.3%. Besides, in test [4], 17.5 ± 1.75 µM corresponded to half-maximal inhibition (IC50).
